The target of series [1] is Beta-secretase 1 (Cricetulus griseus, UniProt G3IAK4). In words: Inhibition of BACE-1 in CHO cells expressing wild-type APP assessed as reduction in amyloid beta-40 production after 6 hrs by sandwich ELISA.
Series [2] deals with Mus musculus. The series is described as follows: In vivo inhibition of BACE-1 in triple transgenic mouse model of Alzheimer's disease assessed as reduction in brain insoluble amyloid beta-40 level administered intranasally qd for 4 days by ELISA. Type of series: functional, organism-based.
Series [3] relates to Mus musculus. The series is described as follows: Toxicity in triple transgenic mouse model of Alzheimer's disease administered intranasally qd for 4 days. Type of series: organism-based. The note with it: in vivo, inhaled_or_intranasal, 96 h.
Series [4] relates to Mus musculus. The series is described as follows: In vivo inhibition of BACE-1 in triple transgenic mouse model of Alzheimer's disease assessed as reduction in brain soluble amyloid beta-40 level administered intranasally qd for 4 days by ELISA. Type of series: functional, organism-based.
The next series concerns the target Cathepsin D (Homo sapiens, UniProt P07339). The series is described as follows: Inhibition of cathepsin D in human liver using Lys-Lys-Pro-Ala-Glu-Phe-Phe-Ala-Leu-Lys as substrate by spectrofluorometric analysis. Conditions: read-out: Ki(app).
Series [5] concerns the target T1, Beta-secretase 1 (Homo sapiens, UniProt P56817). In words: Inhibition of BACE-1 in human SH-SY5Y cells expressing wild-type APP assessed as reduction in amyloid beta-40 production after 16 hrs by sandwich ELISA.
In series [6] the target is T1, Beta-secretase 1. The series is described as follows: Inhibition of recombinant BACE-1 (unknown origin) expressed in Escherichia coli measured for 5 to 30 mins by spectrofluorometric analysis. Conditions: read-out: Ki(app).
The nature of series [7]: Cytotoxicity against human SH-SY5Y cells expressing wild-type APP assessed as cell viability at 600 uM by trypan blue dye exclusion assay relative to control. Type of series: cell-based. Conditions: read-out: Activity.
A short description of series [8]: Cytotoxicity against CHO cells expressing wild-type APP assessed as cell viability at 600 uM by neutral red uptake assay relative to control. Type of series: cell-based, Cricetulus griseus. Conditions: chinese hamster, read-out: Activity.

Where “and” joins values, the source holds several entries; their conditions need not be identical. Identical values can stand only once.

T1 sequence (P56817 whole entry): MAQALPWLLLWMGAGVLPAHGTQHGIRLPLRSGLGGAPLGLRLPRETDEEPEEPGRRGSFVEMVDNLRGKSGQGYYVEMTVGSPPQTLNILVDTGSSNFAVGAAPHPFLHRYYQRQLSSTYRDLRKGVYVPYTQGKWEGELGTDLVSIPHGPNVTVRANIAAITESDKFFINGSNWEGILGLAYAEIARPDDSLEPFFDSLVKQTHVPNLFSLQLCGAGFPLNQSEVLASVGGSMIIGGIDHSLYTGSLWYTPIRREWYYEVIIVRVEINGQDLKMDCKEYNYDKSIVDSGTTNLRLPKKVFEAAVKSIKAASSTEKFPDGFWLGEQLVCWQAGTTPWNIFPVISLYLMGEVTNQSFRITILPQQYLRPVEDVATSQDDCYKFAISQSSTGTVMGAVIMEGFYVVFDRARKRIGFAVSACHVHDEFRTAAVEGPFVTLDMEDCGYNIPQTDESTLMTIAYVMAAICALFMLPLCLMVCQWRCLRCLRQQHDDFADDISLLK
Chain of Cathepsin D (P07339 65-162 limits assumed): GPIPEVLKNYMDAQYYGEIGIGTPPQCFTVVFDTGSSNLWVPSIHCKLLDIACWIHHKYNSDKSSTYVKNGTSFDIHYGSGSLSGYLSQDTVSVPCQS
Chain of Cathepsin D (P07339 169-412 limits assumed): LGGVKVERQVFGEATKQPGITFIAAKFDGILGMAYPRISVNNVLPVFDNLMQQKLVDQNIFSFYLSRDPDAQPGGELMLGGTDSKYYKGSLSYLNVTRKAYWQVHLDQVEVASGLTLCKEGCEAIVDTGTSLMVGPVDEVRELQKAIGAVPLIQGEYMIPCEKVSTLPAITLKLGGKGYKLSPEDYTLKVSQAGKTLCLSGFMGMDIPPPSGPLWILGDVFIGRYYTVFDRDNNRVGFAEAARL
Chain of Beta-secretase 1 (Cricetulus griseus, UniProt G3IAK4) (G3IAK4 whole entry): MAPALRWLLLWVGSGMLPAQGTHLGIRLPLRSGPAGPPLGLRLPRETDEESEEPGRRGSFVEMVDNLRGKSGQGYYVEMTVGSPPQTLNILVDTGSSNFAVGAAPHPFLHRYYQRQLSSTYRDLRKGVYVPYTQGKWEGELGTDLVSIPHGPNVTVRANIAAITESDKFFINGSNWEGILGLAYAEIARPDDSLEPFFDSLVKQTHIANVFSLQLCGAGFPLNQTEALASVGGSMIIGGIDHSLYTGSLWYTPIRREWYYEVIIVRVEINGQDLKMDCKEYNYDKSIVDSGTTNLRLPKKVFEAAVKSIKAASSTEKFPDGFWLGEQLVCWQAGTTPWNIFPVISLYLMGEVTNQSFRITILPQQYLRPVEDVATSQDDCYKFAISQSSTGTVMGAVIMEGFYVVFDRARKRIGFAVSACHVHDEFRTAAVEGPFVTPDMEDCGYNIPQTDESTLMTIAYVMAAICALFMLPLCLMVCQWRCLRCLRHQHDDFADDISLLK

Take `C=C1C(=O)C(C)=C(C)C1(C)C`: the figures for the EC50 on Beta-secretase 1 [1] and at Beta-secretase 1 [5] were 73 µM and 217 µM, respectively. The inhibition result in the series on Mus musculus [2] and with Mus musculus [4] was “Dose-dependent effect” throughout. Further, the Activity result in the series on Mus musculus [3] was “Non-toxic”. Further, the Ki at Cathepsin D was 31 µM and 30.8 µM; at Beta-secretase 1 [6] it was 416 µM. Further, the viability at 600 µM in [7] and in series [8] was more than 90% in each case.

For the origin of these results see ChEMBL document CHEMBL3297700, “Dose-dependent inhibition of BACE-1 by the monoterpenoid 2,3,4,4-tetramethyl-5-methylenecyclopent-2-enone in cellular and mouse models of Alzheimer's disease” (J Nat Prod, 2014).
